The values below come from EP0113029B1, “Dicyclic hexapeptides, processes for their preparation and pharmaceutical compositions containing them” (Merck & Co., Inc., priority 1982, dated 1989).

Where two headings read alike, the source gives them in different places. Positions of bridges follow the written chain, without caps; N, C: chain ends. Non-standard residues stand in square brackets, D forms with d. Residues, ends and D or L forms follow the SMILES beside them.

How the values of the data set were obtained:
In order to stabilize the compound toward such decomposition it was treated in aqueous solution with 10-40 mole % of N-ethylmaleimide, a reagent which will react with free sulfhydryl groups that could catalyze disulfide interchange. The excess N-ethyl maleimide was separated by passage through a column of Sephadex° G-25 gel (superfine) eluted with 50% acetic acid.

Turning to `C[C@@H](O)[C@@H]1NC(=O)[C@H](CCCCN)NC(=O)[C@@H](Cc2c[nH]c3ccccc23)NC(=O)[C@H](Cc2ccccc2)NC(=O)[C@@H]2CSSC[C@H](NC1=O)C(=O)N2` [Example 6] (cyclo(CCF[dW]KT); disulfide 1-2), the “stability with respect to polymerization” value by setting is: (after treatment in aqueous solution with 10-40 mole % of N-ethylmaleimide and reisolation) “completely stable”; (sample as isolated, in certain solvents or on extended storage) “unstable with respect to polymerization”.
